# Legend:
# endothelin-1 = assay: FUSION I: serum endothelin-1; format: in vivo, human
# Excerpt: Surrogate measures with mechanistic implications included measures of serum aldosterone, serum endothelin-1, and serial measurements of ventricular function using ejection fractions derived from echocardiography. […] Left ventricular ejection fractions were serially measured and read at a core lab (Midwest Heart Foundation Echocardiographic Core Laboratory, Lombard, Ill.).
# [1] = system: patients with chronic decompensated HF; assay: FUSION I: use of IV inotropic agents during study visits; format: in vivo, human
# Excerpt: Patients in all treatment groups were allowed to receive any long-term cardiac or noncardiac medications, including IV diuretics, according to investigator discretion. At each visit, the investigator ensured that optimal medical treatment regimens were established. Patients who were randomized to usual care only were allowed to receive positive inotropic agents (milrinone, dobutamine, or dopamine) only if the investigator believed that inotropic support was required to alleviate symptomatic HF and yield hemodynamic stability. Inotropic agents were not permitted in the nesiritide groups unless they were urgently required to prevent hospitalization. During hospitalization, there was no restriction on the use of inotropic agents or nesiritide, regardless of treatment group.
# [2] = all patients who received nesiritide
substance,measurement,setting,value
Nesiritide: a recombinant form of human B-type natriuretic peptide (BNP),Mean change (±standard deviation) in post-infusion concentration of endothelin-1,endothelin-1; 0.005-μg/kg/min,-0.2 ± 1.5 pg/mL
same,Mean change (±standard deviation) in post-infusion concentration of endothelin-1,"endothelin-1; 0.01-μg/kg/min, p=0.04 compared to baseline",-0.6 ± 2.0 pg/mL
same,Post-infusion levels of endothelin-1 versus baseline,"endothelin-1; after the week 12 infusion, all-nesiritide group, p=0.008 (FIG. 2B)",significant change from baseline
same,"Patients receiving IV inotropic agents during study visits through week 12, number","[1]; 0.005 μg/kg/min, n = 72",0
same,"Patients receiving IV inotropic agents during study visits through week 12, %","[1]; 0.01 μg/kg/min, n = 69",3%
same,"Patients receiving IV inotropic agents during study visits through week 12, number","[1]; 0.01 μg/kg/min, n = 69",2
same,"Patients who also received an inotropic agent during a study visit because of decompensated HF, %",[1]; [2],< 2%
same,"Patients who also received an inotropic agent during a study visit because of decompensated HF, number",[1]; [2],2

# From US20050113286A1, “Methods for treating congestive heart failure” (priority 2002, published 2005)
